Laboratory results published in article PMC9403976, “Elucidating the path to Plasmodium prolyl-tRNA synthetase inhibitors that overcome halofuginone resistance” (Nature Communications, 2022).
Several values for one entry are separate records, joined by “and”; a condition that tells them apart may be missing. Equal entries are not always repeated. Where two headings read alike, the source gives them in different places.

Legend:
[1] = tested on: P. falciparum Dd2-2D4; experiment: P. falciparum asexual blood stage (ABS) growth assay, SYBR Green, 72 h, wild-type parasites; type: cell-based, Plasmodium falciparum; details: Plasmodium falciparum, DD2; SI Fig 16b; values on -log scale; read-out: ABS - Dd2-2D4 (converted)
[2] = molecular target: T1, PfcProRS (Plasmodium falciparum, UniProt Q8I5R7); type: binding; details: replicates 1-3
T1 construct: made in house; host or cells: E. coli SoluBL-21
T1 sequence (Q8I5R7 249-746): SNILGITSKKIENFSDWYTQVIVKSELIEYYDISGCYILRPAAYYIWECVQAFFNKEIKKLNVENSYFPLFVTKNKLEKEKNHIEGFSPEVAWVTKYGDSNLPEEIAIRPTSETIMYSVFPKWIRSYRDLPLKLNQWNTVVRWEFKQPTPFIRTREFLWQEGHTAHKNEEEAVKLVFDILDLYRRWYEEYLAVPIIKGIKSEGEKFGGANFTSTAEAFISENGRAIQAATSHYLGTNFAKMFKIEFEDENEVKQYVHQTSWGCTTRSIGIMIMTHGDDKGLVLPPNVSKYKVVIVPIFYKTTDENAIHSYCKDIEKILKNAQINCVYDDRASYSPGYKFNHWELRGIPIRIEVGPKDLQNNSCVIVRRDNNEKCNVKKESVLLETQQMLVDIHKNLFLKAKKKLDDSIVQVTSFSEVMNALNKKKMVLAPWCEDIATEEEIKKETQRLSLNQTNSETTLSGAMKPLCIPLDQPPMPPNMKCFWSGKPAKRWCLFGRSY

[3] = molecular target: HsProRS (Homo sapiens, UniProt P07814); experiment: TR-FRET ligand displacement assay with tracer MAT379 (CoraFluor-1-Halo and anti-His6 antibody formats); type: binding; set-up: made in house; host or cells: E. coli SoluBL-21; details: for HsProRS % signal at 10 μM: no added proline/ATP (-)
Chain of HsProRS (P07814 996-1512): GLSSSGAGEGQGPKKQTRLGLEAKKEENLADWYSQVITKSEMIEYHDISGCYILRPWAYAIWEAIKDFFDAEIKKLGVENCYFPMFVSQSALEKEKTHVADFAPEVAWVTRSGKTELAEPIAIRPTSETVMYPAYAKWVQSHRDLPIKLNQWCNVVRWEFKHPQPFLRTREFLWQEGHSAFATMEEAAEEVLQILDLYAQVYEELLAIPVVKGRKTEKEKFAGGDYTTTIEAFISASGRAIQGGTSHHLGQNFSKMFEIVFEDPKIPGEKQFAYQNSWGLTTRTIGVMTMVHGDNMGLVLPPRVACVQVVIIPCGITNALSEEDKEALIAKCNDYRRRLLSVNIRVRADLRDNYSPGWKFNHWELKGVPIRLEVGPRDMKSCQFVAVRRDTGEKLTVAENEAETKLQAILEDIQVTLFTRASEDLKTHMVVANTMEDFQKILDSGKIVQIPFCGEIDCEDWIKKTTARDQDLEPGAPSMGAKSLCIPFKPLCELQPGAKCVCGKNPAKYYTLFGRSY

[4] = read-out: HsProRS IC50 + 100 μM proline, + 100 μM proline

## CNc1nccnc1C(=O)NC1Cc2ccccc2C1 [compound 46]
[1]
  EC50: 8.11 µM
[2]; Log[inhibitor] (M) -5.000
  Normalized response, dose-response replicates (SI Fig 14): 8.16E-01 and 6.16E-01 and 6.52E-01
[2]; Log[inhibitor] (M) -5.301
  Normalized response, dose-response replicates (SI Fig 14): 8.98E-01 and 7.41E-01 and 8.21E-01
[2]; Log[inhibitor] (M) -5.601
  Normalized response, dose-response replicates (SI Fig 14): 9.35E-01 and 8.99E-01 and 9.60E-01
[2]; Log[inhibitor] (M) -5.904
  Normalized response, dose-response replicates (SI Fig 14): 1.14E+00 and 9.86E-01 and 9.79E-01
[2]; Log[inhibitor] (M) -6.208
  Normalized response, dose-response replicates (SI Fig 14): 1.04E+00 and 1.02E+00 and 8.92E-01
[2]; Log[inhibitor] (M) -6.509
  Normalized response, dose-response replicates (SI Fig 14): 1.02E+00 (2×) and 9.27E-01
[2]; Log[inhibitor] (M) -6.796
  Normalized response, dose-response replicates (SI Fig 14): 1.13E+00 and 1.15E+00 and 1.04E+00
[2]; Log[inhibitor] (M) -7.108
  Normalized response, dose-response replicates (SI Fig 14): 9.45E-01 and 1.04E+00 and 8.83E-01
[2]; Log[inhibitor] (M) -7.409
  Normalized response, dose-response replicates (SI Fig 14): 1.08E+00 and 9.92E-01 and 1.03E+00
[2]; Log[inhibitor] (M) -7.710
  Normalized response, dose-response replicates (SI Fig 14): 9.83E-01 and 1.09E+00 and 9.75E-01
[2]; Log[inhibitor] (M) -8.000
  Normalized response, dose-response replicates (SI Fig 14): 9.64E-01 and 1.04E+00 and 9.43E-01
[2]; Log[inhibitor] (M) -8.301
  Normalized response, dose-response replicates (SI Fig 14): 1.03E+00 (2×) and 1.01E+00
[2]; Log[inhibitor] (M) -8.602
  Normalized response, dose-response replicates (SI Fig 14): 1.06E+00 and 9.77E-01 and 1.03E+00
[2]; Log[inhibitor] (M) -9.000
  Normalized response, dose-response replicates (SI Fig 14): 9.75E-01 and 9.25E-01 and 9.98E-01
[2]; Log[inhibitor] (M) -9.301
  Normalized response, dose-response replicates (SI Fig 14): 9.09E-01 and 1.02E+00 and 8.23E-01
[3]
  IC50: > 10 µM
  HsProRS % signal at 10 μM: 97.1%
[3]; + 100 μM proline
  HsProRS % signal at 10 μM, + 100 μM proline: 91.7%
[3]; [4]
  IC50: > 10 µM

## O=C(NC1Cc2ccccc2C1)c1nccnc1NS(=O)(=O)C1CCCCC1 [compound 50]
[1]
  EC50: 13 µM
[2]; Log[inhibitor] (M) -5.000
  Normalized response, dose-response replicates (SI Fig 14): 8.68E-01 and 9.74E-01 and 9.94E-01
[2]; Log[inhibitor] (M) -5.301
  Normalized response, dose-response replicates (SI Fig 14): 9.83E-01 and 9.53E-01 and 9.64E-01
[2]; Log[inhibitor] (M) -5.601
  Normalized response, dose-response replicates (SI Fig 14): 9.71E-01 and 9.90E-01 and 1.02E+00
[2]; Log[inhibitor] (M) -5.904
  Normalized response, dose-response replicates (SI Fig 14): 1.05E+00 and 1.15E+00 and 1.14E+00
[2]; Log[inhibitor] (M) -6.208
  Normalized response, dose-response replicates (SI Fig 14): 1.03E+00 and 9.74E-01 and 1.18E+00
[2]; Log[inhibitor] (M) -6.509
  Normalized response, dose-response replicates (SI Fig 14): 1.04E+00 and 9.48E-01 and 1.06E+00
[2]; Log[inhibitor] (M) -6.796
  Normalized response, dose-response replicates (SI Fig 14): 9.91E-01 and 1.03E+00 and 9.32E-01
[2]; Log[inhibitor] (M) -7.108
  Normalized response, dose-response replicates (SI Fig 14): 9.63E-01 and 9.98E-01 and 1.15E+00
[2]; Log[inhibitor] (M) -7.409
  Normalized response, dose-response replicates (SI Fig 14): 9.71E-01 and 8.81E-01 and 1.12E+00
[2]; Log[inhibitor] (M) -7.710
  Normalized response, dose-response replicates (SI Fig 14): 9.98E-01 and 1.04E+00 and 1.13E+00
[2]; Log[inhibitor] (M) -8.000
  Normalized response, dose-response replicates (SI Fig 14): 1.13E+00 and 9.44E-01 and 9.76E-01
[2]; Log[inhibitor] (M) -8.301
  Normalized response, dose-response replicates (SI Fig 14): 8.99E-01 and 9.55E-01 and 8.96E-01
[2]; Log[inhibitor] (M) -8.602
  Normalized response, dose-response replicates (SI Fig 14): 9.78E-01 and 9.85E-01 and 1.02E+00
[2]; Log[inhibitor] (M) -9.000
  Normalized response, dose-response replicates (SI Fig 14): 9.55E-01 (2×) and 1.01E+00
[2]; Log[inhibitor] (M) -9.301
  Normalized response, dose-response replicates (SI Fig 14): 9.48E-01 and 9.83E-01 and 9.54E-01
[3]
  IC50: > 10 µM
  HsProRS % signal at 10 μM: 87.7%
[3]; + 100 μM proline
  HsProRS % signal at 10 μM, + 100 μM proline: 84.5%
[3]; [4]
  IC50: > 10 µM

## Nc1nccnc1C(=O)NC1CCCCC1 [compound 48]
[1]
  EC50: 8.75 µM
[2]; Log[inhibitor] (M) -5.000
  Normalized response, dose-response replicates (SI Fig 14): 7.98E-01 and 9.64E-01 and 8.59E-01
[2]; Log[inhibitor] (M) -5.301
  Normalized response, dose-response replicates (SI Fig 14): 1.00E+00 and 9.90E-01 and 9.60E-01
[2]; Log[inhibitor] (M) -5.601
  Normalized response, dose-response replicates (SI Fig 14): 1.12E+00 and 9.39E-01 and 1.04E+00
[2]; Log[inhibitor] (M) -5.904
  Normalized response, dose-response replicates (SI Fig 14): 1.09E+00 and 1.16E+00 and 9.71E-01
[2]; Log[inhibitor] (M) -6.208
  Normalized response, dose-response replicates (SI Fig 14): 1.14E+00 and 9.41E-01 and 1.00E+00
[2]; Log[inhibitor] (M) -6.509
  Normalized response, dose-response replicates (SI Fig 14): 1.15E+00 and 1.05E+00 and 9.08E-01
[2]; Log[inhibitor] (M) -6.796
  Normalized response, dose-response replicates (SI Fig 14): 9.89E-01 and 9.81E-01 and 1.09E+00
[2]; Log[inhibitor] (M) -7.108
  Normalized response, dose-response replicates (SI Fig 14): 9.93E-01 and 1.12E+00 and 9.45E-01
[2]; Log[inhibitor] (M) -7.409
  Normalized response, dose-response replicates (SI Fig 14): 1.04E+00 and 1.09E+00 and 1.06E+00
[2]; Log[inhibitor] (M) -7.710
  Normalized response, dose-response replicates (SI Fig 14): 1.09E+00 and 9.79E-01 and 1.07E+00
[2]; Log[inhibitor] (M) -8.000
  Normalized response, dose-response replicates (SI Fig 14): 1.09E+00 and 1.00E+00 and 1.03E+00
[2]; Log[inhibitor] (M) -8.301
  Normalized response, dose-response replicates (SI Fig 14): 1.08E+00 and 1.10E+00 and 1.07E+00
[2]; Log[inhibitor] (M) -8.602
  Normalized response, dose-response replicates (SI Fig 14): 1.05E+00 and 1.09E+00 and 1.03E+00
[2]; Log[inhibitor] (M) -9.000
  Normalized response, dose-response replicates (SI Fig 14): 1.01E+00 and 1.14E+00 and 9.74E-01
[2]; Log[inhibitor] (M) -9.301
  Normalized response, dose-response replicates (SI Fig 14): 1.02E+00 and 1.01E+00 and 1.04E+00
[3]
  IC50: > 10 µM
  HsProRS % signal at 10 μM: 89.6%
[3]; + 100 μM proline
  HsProRS % signal at 10 μM, + 100 μM proline: 87.4%
[3]; [4]
  IC50: > 10 µM
